The results in this text go back to ChEMBL document CHEMBL5579880, “Rational Design of a Novel 6H-Benzo[c]chromen Series as Selective PI3Kα Inhibitors” (J Med Chem, 2024).

Assay [1] concerns the target Phosphatidylinositol 4,5-bisphosphate 3-kinase catalytic subunit gamma isoform (Homo sapiens, UniProt P48736). The experiment in a line: Inhibition of PI3Kgamma (unknown origin) incubated for 60 mins in presence of ATP by ADP-Glo reagent assay. On the technique in general: ADP-Glo turns the ADP formed in a reaction into a luminescent signal.
In assay [2] the target is Phosphatidylinositol 4,5-bisphosphate 3-kinase catalytic subunit beta isoform (Homo sapiens, UniProt P42338). In words: Inhibition of PI3Kbeta (unknown origin) incubated for 60 mins in presence of ATP by ADP-Glo reagent assay.
Assay [3] has as its target T1, Phosphatidylinositol 4,5-bisphosphate 3-kinase catalytic subunit delta isoform (Homo sapiens, UniProt O00329).
T1 sequence (O00329 whole entry): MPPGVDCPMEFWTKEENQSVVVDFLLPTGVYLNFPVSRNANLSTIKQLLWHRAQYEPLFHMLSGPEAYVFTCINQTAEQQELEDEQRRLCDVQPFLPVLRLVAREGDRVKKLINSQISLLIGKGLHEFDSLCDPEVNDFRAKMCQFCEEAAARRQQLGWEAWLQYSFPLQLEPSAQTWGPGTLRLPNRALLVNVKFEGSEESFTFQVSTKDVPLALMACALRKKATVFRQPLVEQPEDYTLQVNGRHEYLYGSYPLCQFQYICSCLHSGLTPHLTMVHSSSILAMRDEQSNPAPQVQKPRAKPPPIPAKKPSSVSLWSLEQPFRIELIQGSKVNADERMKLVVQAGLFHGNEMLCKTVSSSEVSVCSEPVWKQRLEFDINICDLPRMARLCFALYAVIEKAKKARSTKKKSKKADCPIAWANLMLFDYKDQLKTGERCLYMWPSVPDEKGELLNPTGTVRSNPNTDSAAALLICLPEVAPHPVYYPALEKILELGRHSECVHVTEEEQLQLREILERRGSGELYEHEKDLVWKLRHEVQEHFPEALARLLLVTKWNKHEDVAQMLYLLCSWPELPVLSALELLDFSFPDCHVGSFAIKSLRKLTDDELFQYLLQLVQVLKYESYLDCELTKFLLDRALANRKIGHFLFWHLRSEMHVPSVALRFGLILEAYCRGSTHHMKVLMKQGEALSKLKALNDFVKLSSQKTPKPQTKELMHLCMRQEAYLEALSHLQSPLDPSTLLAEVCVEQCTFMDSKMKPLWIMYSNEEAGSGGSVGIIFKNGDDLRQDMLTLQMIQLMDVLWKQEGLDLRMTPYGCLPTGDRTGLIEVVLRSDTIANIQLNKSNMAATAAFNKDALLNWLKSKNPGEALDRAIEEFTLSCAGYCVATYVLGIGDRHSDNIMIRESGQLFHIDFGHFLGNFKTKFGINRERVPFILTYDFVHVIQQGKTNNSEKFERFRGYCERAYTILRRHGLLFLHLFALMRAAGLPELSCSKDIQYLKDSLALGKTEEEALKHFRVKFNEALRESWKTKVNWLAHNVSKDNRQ
The experiment in a line: Inhibition of PI3Kdelta (unknown origin) incubated for 60 mins in presence of ATP by ADP-Glo reagent assay relative to control.

Assay [4] has as its system MCF7. The experiment in a line: cells. Conditions: Homo sapiens, MCF7, 168 h.
Description: Antiproliferative activity against human MCF7 cells assessed as inhibition of cell growth incubated for 7 days by CCK8 assay
Assay [5] concerns T47D. In words: cells. Conditions: Homo sapiens, 168 h.
Description: Antiproliferative activity against human T47D cells assessed as inhibition of cell growth incubated for 7 days by CCK8 assay
The test system of assay [6] is MCF7. In words: cells. To be noted: Homo sapiens, MCF7, 24 h, read-out: Activity.
Assay [7] concerns MCF7. The experiment in a line: Induction of apoptosis in human MCF7 cells assessed as late apoptotic cells at 3.3 uM incubated for 24 hrs by Annexin V-PE/7-AAD staining based flow cytometric analysis (Rvb= […]). The assay is classed as functional.
Assay [8] deals with MCF7. In words: cells. Conditions: Homo sapiens, MCF7, 24 h, read-out: Activity. The source holds these as a separate data set.
The test system of assay [9] is MCF7. The experiment in a line: Induction of apoptosis in human MCF7 cells assessed as necrotic cells at […] incubated for 24 hrs by Annexin V-PE/7-AAD staining based flow cytometric analysis (Rvb= 0.4 %). The assay is classed as functional. Conditions: dose 1.1 µM. (In flow cytometry, cells or beads pass a laser one at a time.)
In assay [10] the test system is MCF7. The experiment in a line: Induction of apoptosis in human MCF7 cells assessed as early apoptotic cells at […] incubated for 24 hrs by Annexin V-PE/7-AAD staining based flow cytometric analysis (Rvb= 1.3 %). Format: functional. Conditions: dose 1.1 µM.
Assay [11] relates to MCF7. The experiment in a line: Induction of apoptosis in human MCF7 cells assessed as late apoptotic cells at 10 uM incubated for 24 hrs by Annexin V-PE/7-AAD staining based flow cytometric analysis (Rvb= […]). Format: functional.
Assay [12] deals with MCF7. The experiment in a line: Antitumor activity against human MCF7 cells xenografted in NCG mouse assessed as inhibition of tumor growth at 12.5 mg/kg,po administrated daily for 21 days relative to control. The assay is classed as functional. Conditions: MCF7, 504 h, time 21 day, read-out: TGI.
The subject of assay [13] is MCF7. In words: Induction of apoptosis in human MCF7 cells assessed as necrotic cells at 3.3 uM incubated for 24 hrs by Annexin V-PE/7-AAD staining based flow cytometric analysis (Rvb= 0.4 %). The assay is classed as functional.
The subject of assay [14] is MCF7. The experiment in a line: Induction of apoptosis in human MCF7 cells assessed as early apoptotic cells at 10 uM incubated for 24 hrs by Annexin V-PE/7-AAD staining based flow cytometric analysis (Rvb= 1.3 %). Format: functional.
Assay [15] deals with MCF7. In words: Induction of apoptosis in human MCF7 cells assessed as necrotic cells at 10 uM incubated for 24 hrs by Annexin V-PE/7-AAD staining based flow cytometric analysis (Rvb= 0.4 %). The assay is classed as functional.
For assay [16], the system named is MCF7. In words: Induction of apoptosis in human MCF7 cells assessed as early apoptotic cells at 3.3 uM incubated for 24 hrs by Annexin V-PE/7-AAD staining based flow cytometric analysis (Rvb= 1.3 %). The assay is classed as functional.
Assay [17] deals with MCF7. In words: cells. To be noted: Homo sapiens, MCF7, 24 h, read-out: Activity. This is another data set of the same source.
The test system of assay [18] is MCF7. The experiment in a line: Induction of apoptosis in human MCF7 cells assessed as late apoptotic cells at […] incubated for 24 hrs by Annexin V-PE/7-AAD staining based flow cytometric analysis (Rvb= […]). Conditions: dose 1.1 µM. The assay is classed as functional.

Chain of Phosphatidylinositol 4,5-bisphosphate 3-kinase catalytic subunit beta isoform (P42338 whole entry, canonical isoform): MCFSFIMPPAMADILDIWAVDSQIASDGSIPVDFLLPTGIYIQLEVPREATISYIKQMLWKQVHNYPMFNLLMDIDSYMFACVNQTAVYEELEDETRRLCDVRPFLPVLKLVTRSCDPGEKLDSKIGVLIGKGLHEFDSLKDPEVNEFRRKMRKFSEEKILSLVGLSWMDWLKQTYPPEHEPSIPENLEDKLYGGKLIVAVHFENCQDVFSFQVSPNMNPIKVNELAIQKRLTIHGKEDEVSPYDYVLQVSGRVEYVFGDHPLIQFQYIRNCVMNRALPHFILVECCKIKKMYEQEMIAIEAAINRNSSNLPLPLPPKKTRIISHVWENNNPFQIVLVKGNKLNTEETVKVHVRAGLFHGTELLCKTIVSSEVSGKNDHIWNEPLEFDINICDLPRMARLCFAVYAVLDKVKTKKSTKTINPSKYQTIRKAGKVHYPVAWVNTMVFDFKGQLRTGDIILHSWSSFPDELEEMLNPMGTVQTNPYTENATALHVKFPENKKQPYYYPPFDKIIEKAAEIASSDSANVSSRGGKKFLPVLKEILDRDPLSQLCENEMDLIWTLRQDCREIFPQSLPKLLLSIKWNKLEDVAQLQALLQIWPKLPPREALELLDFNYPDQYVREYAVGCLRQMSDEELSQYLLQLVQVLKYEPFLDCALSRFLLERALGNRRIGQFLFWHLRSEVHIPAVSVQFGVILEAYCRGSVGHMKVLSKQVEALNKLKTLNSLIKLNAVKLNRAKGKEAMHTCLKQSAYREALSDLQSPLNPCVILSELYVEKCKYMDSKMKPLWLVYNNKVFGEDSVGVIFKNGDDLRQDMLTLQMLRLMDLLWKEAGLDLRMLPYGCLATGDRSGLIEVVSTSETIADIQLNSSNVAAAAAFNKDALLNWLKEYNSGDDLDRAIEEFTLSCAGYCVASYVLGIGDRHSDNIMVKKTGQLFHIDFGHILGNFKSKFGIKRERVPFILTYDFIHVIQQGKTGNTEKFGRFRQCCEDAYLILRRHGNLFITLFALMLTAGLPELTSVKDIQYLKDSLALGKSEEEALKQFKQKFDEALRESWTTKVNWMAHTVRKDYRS
Chain of Phosphatidylinositol 4,5-bisphosphate 3-kinase catalytic subunit gamma isoform (P48736 whole entry, canonical isoform): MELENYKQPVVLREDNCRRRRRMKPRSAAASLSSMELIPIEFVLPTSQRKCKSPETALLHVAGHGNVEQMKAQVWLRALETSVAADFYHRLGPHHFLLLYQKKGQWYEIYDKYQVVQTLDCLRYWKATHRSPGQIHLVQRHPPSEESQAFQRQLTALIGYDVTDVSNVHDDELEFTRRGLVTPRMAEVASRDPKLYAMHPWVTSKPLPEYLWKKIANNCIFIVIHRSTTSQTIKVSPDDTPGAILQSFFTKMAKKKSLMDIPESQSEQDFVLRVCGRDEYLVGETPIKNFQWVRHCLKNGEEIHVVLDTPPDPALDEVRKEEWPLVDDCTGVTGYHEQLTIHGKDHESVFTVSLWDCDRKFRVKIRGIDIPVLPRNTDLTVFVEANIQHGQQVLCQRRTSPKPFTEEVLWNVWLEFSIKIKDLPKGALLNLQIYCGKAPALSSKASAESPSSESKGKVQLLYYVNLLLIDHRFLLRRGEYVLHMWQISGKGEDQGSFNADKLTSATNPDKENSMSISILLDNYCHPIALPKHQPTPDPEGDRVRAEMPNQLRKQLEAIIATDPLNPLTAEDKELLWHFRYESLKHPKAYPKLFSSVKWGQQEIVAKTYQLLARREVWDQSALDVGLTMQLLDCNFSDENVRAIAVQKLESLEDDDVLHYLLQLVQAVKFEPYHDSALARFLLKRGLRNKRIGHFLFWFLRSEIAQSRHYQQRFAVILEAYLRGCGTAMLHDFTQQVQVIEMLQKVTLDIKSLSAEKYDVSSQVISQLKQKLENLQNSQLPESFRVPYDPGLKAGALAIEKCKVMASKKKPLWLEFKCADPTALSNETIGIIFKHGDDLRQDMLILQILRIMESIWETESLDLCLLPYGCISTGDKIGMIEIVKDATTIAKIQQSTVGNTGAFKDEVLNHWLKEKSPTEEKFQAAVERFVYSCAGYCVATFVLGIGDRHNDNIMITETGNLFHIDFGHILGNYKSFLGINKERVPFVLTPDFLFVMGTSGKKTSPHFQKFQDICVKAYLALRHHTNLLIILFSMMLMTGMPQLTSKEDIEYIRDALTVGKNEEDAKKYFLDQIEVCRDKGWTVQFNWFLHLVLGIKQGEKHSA

What is called IC50 is the concentration that gives 50% inhibition. `C[C@H](Oc1ccc2c(c1)OCc1ccc(-c3ncccn3)cc1-2)C(N)=O`: the IC50 in [1] is 7.09 µM; in assay [2], more than 10 µM; in assay [3], 1.16 µM.
Take `CC(C)n1nccc1-c1ccc2c(c1)-c1ccc(O[C@@H](C)C(N)=O)cc1OC2`: the IC50 in assay [4] is 21.9 µM; in assay [5], 24.9 µM.
Take `C[C@H](Oc1ccc2c(c1)OCc1ccc(-c3ccncc3)cc1-2)C(N)=O`: the IC50 was 0.94 µM in assay [1], 3.25 µM in assay [2] and 0.352 µM in assay [3].
As to `C[C@H](Oc1ccc2c(c1)OCc1ccc(-c3cccnc3)cc1-2)C(N)=O`, the figures for the concentration for half-maximal inhibition (IC50) in [4] and in assay [5] were 14.9 µM and 16.6 µM, respectively.
As for `C[C@H](Oc1ccc2c(c1)OCc1ccc(-c3ccccn3)cc1-2)C(N)=O`, the IC50 in assay [4] was 13.9 µM; in [5], 8.1 µM.
With `C[C@H](Oc1ccc2c(c1)OCc1ccc(-c3ccn(C)n3)cc1-2)C(N)=O`, the IC50 in assay [4] is 17.2 µM; in [5] it was 11.5 µM.
As to `C[C@H](Oc1ccc2c(c1)OCc1ccc(-c3ncnn3C)cc1-2)C(N)=O`, the results for the concentration for half-maximal inhibition (IC50) in assay [1], in [2] and in assay [3] were 5.07 µM, 4.97 µM and 0.933 µM, respectively.
As to `C[C@H](Oc1ccc2c(c1)OCc1ccc(-c3ccncn3)cc1-2)C(N)=O`, the IC50 in assay [3] is 0.702 µM.
Consider `C[C@H](Oc1ccc2c(c1)OCc1ccc(-c3cc[nH]n3)cc1-2)C(N)=O`, for which the results for the IC50 in assay [1], in assay [2] and in assay [3] were 1.29 µM, 2.67 µM and 0.44 µM, respectively.
On to `Cc1nc(NC(=O)N2CCC[C@H]2C(N)=O)sc1-c1ccnc(C(C)(C)C(F)(F)F)c1` [ALPELISIB], for which the viability at […] in assay [6] is 75%. Also, the Activity in assay [7] came out at 16.1%; in [9], 10.3%; in [10], 2.2%; in assay [11], 15%; in assay [13], 16.3%; in [14], 2.9%. Also, the Activity in assay [15] is 33.6%; in [16] it was 3.9%; in assay [18], 12.5%. Besides, the viability at 3.3 µM in assay [8] came to 63.7%. The inhibition in vivo at 12.5 mg/kg in assay [12] is 88%. Further, the viability at 10 µM in assay [17] worked out at 48.5%. The concentration for half-maximal inhibition (IC50) worked out at 0.6 µM in assay [4] and 0.4 µM in assay [5].
